Results on one substance are retold here after patent US20090317364A1, “NOVEL COMPOSITIONS FOR PREVENTION AND TREATMENT OF MASTITIS AND METRITIS” (priority 2006, published 2009).

Assay [1] has as its system Staphylococcus. aureus. As to the kind of experiment: Lab trials 2a (in vitro) for synergy, components added in wells for diffusion. It is filed as cell-based. From the text: a) Lab trials 2a (in vitro) for synergy.
The test system of assay [2] is Staphylococcus. aureus. As to the kind of experiment: Lab trials 2b (in vitro) for synergy, components added on top of the culture. It counts as cell-based. An excerpt:
b) Lab trials 2b (in vitro) for synergy.

Regarding “Peptidoglycan N-acetylmuramoylhydrolase [Lysozyme]”, the “Inhibition zone diameter In cm for Staphylococcus. aureus” value in assay [1] is listed as 1.15 cm. Moreover, in assay [2], the “Inhibition zone In diameter cm for Staphylococcus. aureus” value was determined as 1.1 cm.
